Patent US9888679B2, “Protection of progenitor cells and regulation of their differentiation” (Proteobioactives Pty Ltd, priority 2007, dated 2018)

What was measured:
[1] = test system: murine progenitor cells (C3H10T1-2); test: Proteoglycan synthesis in micromass cultures, 6 and 9 days; type: cell-based; conditions: FIG. 16
Method: FIG. 16. A bar graph showing the concentration dependent effects of PPS on proteoglycan synthesis by murine progenitor cells (C3H10T1-2) in micromass cultures for 6 days and 9 days. PPS was included in the media (Ham's F12+10% FCS) and was changed every 48 hours. ^35S—SO4 was added 24 hours before culture termination. Synthesis normalized to DNA content. * P<0.05, **P<0.005, ***P<0.0005 relative to controls.
The technique used was based on that described by (Denker A E, Haas A R, Nicoll S B and Tuan R S. Chondrogenic differentiation of murine C3H10T1/2 multipotential progenitor cells: I. Stimulation by bone morphogenetic protein-2 in high density micromass cultures. Differentiation (1999); 64: 67-76). Briefly murine Progenitor cells (cell lines C3H10T1/2 or ATDC5) purchased from RIKEN Cell Bank (Tsukuba, Japan) or human immunoselected Stro-1+ Progenitor cells (Mesoblast Ltd, Melbourne, Australia) Ten microlitres (10 μl) of a suspension of the progenitor cells (1×10^7 cells/ml in Ham's F12 medium+10% FBS) were applied to individual wells of a 24-well plates. […] The radioactivity of ^35S—SO4 incorporated the ^35S-GAG-CPC complexes was measured by scintillation counting. […]

[2] = test system: human progenitor cells; test: Type II collagen immunostaining of micromass cultures, 10 days; type: cell-based; conditions: FIG. 18
Method: FIG. 18. A: Bar graph showing the Pentosan Polysulfate (PPS) concentration dependent stimulation of type II collagen production by human progenitor cells in micromass cultures for 10 days as determined by scanning and digital analysis of the immuno stained micromass cultures shown in B. (see text for details).
Micromass cultures of progenitor cells were established in 24-well culture plates at a starting density of 8×10^4 cells/micromass in 1 ml of DMEM (+10% FBS) with/without various concentrations of Pentosan Polysulfate as described above. On Day-5 and Day-10 of culture, media was removed and cultures were fixed with Histochoice MB (Amresco, Solon, Ohio, USA) for 20-30 min at RT. The fixed cultures were washed twice in PBS (5 min each time); […] then washed in PBS for 5 min. […]. After rinsing, first with a gentle stream of PBS, followed by washing 3 times (5 min each time) with PBS, the wells were blocked with […] rinsing with a gentle stream of PBS then 3×washing (5 min each time) with PBS, to each micromass culture was added 200 μl of 1× (BCIP/Buffer+NBT) and the plates incubated in the reaction was stopped when the purple color first became established in the section by washing in running water. Plates and wells were then photographed with a digital camera and the images analysed by using Image J® software (http://rsb.info.nih.gov/ij/) on a personal computer.

In the case of pentosan polysulfate [PPS], the “uptake of 35S into newly synthesized PG” value ([1]; 1-20 micrograms/mL, micromass) is reported as “Highly significant stimulation”, the “stimulation of proteoglycan synthesis” value ([1]; 1 microgram/mL, nine days in micromass cultures) is reported as 100% and the “Type II Collagen production” value ([2]; 0.5-10 μg/ml, 10 days) is reported as “Increased Type II Collagen production”. For the same substance, the “type II collagen staining” value ([2]; 1-10 micrograms/mL for 10 days) was “intense type II collagen staining” and the “concentration giving maximum type II collagen levels” value ([2]; 10 day micromass) was 5 µg/mL.
